Test [1] has as its system SOLNI. Nature of the test: Post-emergence herbicidal activity on SOLNI (black nightshade). It is filed as in vivo, Solanum nigrum. The note with it: post-emergence spray; lowest tested rate with 80% or greater inhibition; about 14 days after treatment. The text has this: (§1) All such uses, and the biological activity enabling such uses, are embraced by the term “herbicidal” herein. Tables 15 and 16 summarize results of tests conducted as described below to determine the pre-emergence herbicidal activity, in the form of a GR80 value, of illustrative compounds of this invention. […] Where herbicidal activity was evident but 80% inhibition was not achieved at the highest rate tested (typically 1000 g/ha), an asterisk (*) is shown in the following tables. Herbicidal activity evident in the form of symptoms of phytotoxicity, in the absence of at least 80% inhibition at any rate, is indicated in the tables by “phyto”. A blank cell in the following tables indicates no herbicidal or phytotoxic response at any rate tested.
(§2) In another set of tests, the post-emergence activity of compounds of this invention was evaluated on the cool season species listed above. The following procedure was used.
(§3) A pre-prepared topsoil mixture (described above) was placed in a pot and compacted to a depth of 1.0 to 1.25 cm from the top of the pot. Seeds of each of several monocotyledonous and dicotyledonous annual plant species were placed on top of the soil The seeds were covered with a mixture of 50% topsoil and 50% Rediearth™ in sufficient quantity to level-fill the pots. The pots were then placed on a greenhouse bench and subirrigated as needed until plants growing from the seeds had emerged and reached a suitable growth stage for post-emergence treatment, typically 9 to 14 days after planting.
(§4) A known amount of each test compound dissolved or suspended in an appropriate organic solvent was diluted with a 50:50 mix of acetone and water and applied to the plants by spraying with a standard spray nozzle in a spray volume of 3,100 l/ha at a spray pressure of […] (30 psig). Control plants were not sprayed.
(§5) After treatment the plants were placed in a greenhouse with a 30/21° C. day/night temperature regime and were subsequently watered as needed for growth. Approximately 14 days after treatment, the plants were observed and herbicidal efficacy recorded as percent inhibition by comparison with control plants.

Another test relates to AMARE. Put plainly: Post-emergence herbicidal activity on AMARE (redroot pigweed). It is filed as in vivo, Amaranthus retroflexus. The note with it: post-emergence spray; lowest tested rate with 80% or greater inhibition; about 14 days after treatment.
Source text: as §1, §2, §3, §4, §5

In the next test the test system is PANMI. Nature of the test: Post-emergence herbicidal activity on PANMI (wild proso millet). In kind it is in vivo, Panicum miliaceum. The note with it: post-emergence spray; lowest tested rate with 80% or greater inhibition; about 14 days after treatment.
A further test deals with CIRAR. Put plainly: Post-emergence herbicidal activity on CIRAR (canada thistle, seedling). In kind it is in vivo, Cirsium arvense. As to conditions: post-emergence spray; lowest tested rate with 80% or greater inhibition; about 14 days after treatment.
Source text: as §1, §2, §3, §4, §5

The subject of the next test is SORVU. Put plainly: Post-emergence herbicidal activity on SORVU (shattercane). In kind it is in vivo, Sorghum vulgare. The note with it: post-emergence spray; lowest tested rate with 80% or greater inhibition; about 14 days after treatment.
Source text: as §1, §2, §3, §4, §5

Another test has as its system ECHCG. Nature of the test: Post-emergence herbicidal activity on ECHCG (barnyardgrass). It is filed as in vivo, Echinochloa crus-galli. The note with it: post-emergence spray; lowest tested rate with 80% or greater inhibition; about 14 days after treatment.
Source text: as §1, §2, §3, §4, §5

The next test concerns POROL. Put plainly: Post-emergence herbicidal activity on POROL (common purslane; table head prints PORAL). In kind it is in vivo, Portulaca oleracea. The note with it: post-emergence spray; lowest tested rate with 80% or greater inhibition; about 14 days after treatment.
Source text: as §1, §2, §3, §4, §5

In test [2] the test system is ABUTH. Nature of the test: Post-emergence herbicidal activity on ABUTH (velvetleaf). It is filed as in vivo, Abutilon theophrasti. As to conditions: post-emergence spray; lowest tested rate with 80% or greater inhibition; about 14 days after treatment.
Source text: as §1, §2, §3, §4, §5

For a further test, the system named is PANDI. Nature of the test: Post-emergence herbicidal activity on PANDI (fall panicum). In kind it is in vivo, Panicum dichotomiflorum. As to conditions: post-emergence spray; lowest tested rate with 80% or greater inhibition; about 14 days after treatment.
Source text: as §1, §2, §3, §4, §5

Test [3] deals with BRAPP. Put plainly: Post-emergence herbicidal activity on BRAPP (broadleaf signalgrass). In kind it is in vivo, Brachiaria platyphylla. As to conditions: post-emergence spray; lowest tested rate with 80% or greater inhibition; about 14 days after treatment.
Source text: as §1, §2, §3, §4, §5

The next test has as its system CHEAL. Put plainly: Post-emergence herbicidal activity on CHEAL (common lambsquarters). It is filed as in vivo, Chenopodium album. As to conditions: post-emergence spray; lowest tested rate with 80% or greater inhibition; about 14 days after treatment.
Source text: as §1, §2, §3, §4, §5

A further test has as its system DATST. Nature of the test: Post-emergence herbicidal activity on DATST (jimsonweed). In kind it is in vivo, Datura stramonium. The note with it: post-emergence spray; lowest tested rate with 80% or greater inhibition; about 14 days after treatment.
Source text: as §1, §2, §3, §4, §5

Another test has as its system DIGSA. Put plainly: Post-emergence herbicidal activity on DIGSA (large crabgrass). In kind it is in vivo, Digitaria sanguinalis. As to conditions: post-emergence spray; lowest tested rate with 80% or greater inhibition; about 14 days after treatment.
Test [4] relates to SORHA. Nature of the test: Post-emergence herbicidal activity on SORHA (johnsongrass, seedling). In kind it is in vivo, Sorghum halepense. As to conditions: post-emergence spray; lowest tested rate with 80% or greater inhibition; about 14 days after treatment.
Source text: as §1, §2, §3, §4, §5

Test [5] has as its system SETFA. Nature of the test: Pre-emergence herbicidal activity on SETFA (giant foxtail). The note with it: lowest tested rate giving 80% or greater inhibition, approx. 14 days after planting and treating, greenhouse. In kind it is in vivo, Setaria faberi. Summed up:
(§6)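 GR80 values come from percent inhibition relative to untreated plants, rated roughly 14 days after planting and treating, with rates up to typically 1000 g/ha. Compound was sprayed onto the soil over freshly covered seeds as a dilution in 50:50 acetone/water; pots kept in greenhouse at 30/21° C. day/night after 0.64 cm overhead watering.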

Test [6] deals with SOLNI. Put plainly: Pre-emergence herbicidal activity on SOLNI (black nightshade). In kind it is in vivo, Solanum nigrum. The note with it: lowest tested rate giving 80% or greater inhibition, approx. 14 days after planting and treating, greenhouse. The method in brief:
as §6

Test [7] has as its system SETFA. Put plainly: Post-emergence herbicidal activity on SETFA (giant foxtail). In kind it is in vivo, Setaria faberi. The note with it: post-emergence spray; lowest tested rate with 80% or greater inhibition; about 14 days after treatment.
Source text: as §1, §2, §3, §4, §5

The test system of test [8] is BRAPP. Put plainly: Pre-emergence herbicidal activity on BRAPP (broadleaf signalgrass). In kind it is in vivo, Brachiaria platyphylla. The note with it: lowest tested rate giving 80% or greater inhibition, approx. 14 days after planting and treating, greenhouse. The method in brief:
as §6

The next test has as its system CONAR. Nature of the test: Post-emergence herbicidal activity on CONAR (field bindweed). In kind it is in vivo, Convolvulus arvensis. As to conditions: post-emergence spray; lowest tested rate with 80% or greater inhibition; about 14 days after treatment.
Source text: as §1, §2, §3, §4, §5

In test [9] the test system is ABUTH. Nature of the test: Pre-emergence herbicidal activity on ABUTH (velvetleaf). It is filed as in vivo, Abutilon theophrasti. The note with it: lowest tested rate giving 80% or greater inhibition, approx. 14 days after planting and treating, greenhouse. The method in brief: as §6
The subject of test [10] is SORHA. Put plainly: Pre-emergence herbicidal activity on SORHA (johnsongrass, seedling). In kind it is in vivo, Sorghum halepense. The note with it: lowest tested rate giving 80% or greater inhibition, approx. 14 days after planting and treating, greenhouse. Summed up:
as §6

Turning to `O=C(NCC(CO)NC(=O)c1cccc(C(F)(F)F)c1)c1cccc(C(F)(F)F)c1` (stereo not shown) [Example 11, N,N′-(3-hydroxy-1,2-propanediylbis)-3-(trifluoromethyl)benzamide], the “Post-emergence activity (GR80) SOLNI” value in the test on SOLNI [1] is “[empty]”. Further, in the test on AMARE, the “Post-emergence activity (GR80) AMARE” value is “phyto”. Further, the “Post-emergence activity (GR80) PANMI” value in the test on PANMI is “[empty]”. In the test on CIRAR, the “Post-emergence activity (GR80) CIRAR” value is “[empty]”. The “Post-emergence activity (GR80) SORVU” value in the test on SORVU is “[empty]”. In addition, the “Post-emergence activity (GR80) ECHCG” value with ECHCG was “[empty]”. Moreover, in the test with POROL, the “Post-emergence activity (GR80) PORAL” value was “[empty]”. In addition, in the test on ABUTH [2], the “Post-emergence activity (GR80) ABUTH” value was “[empty]”. For the same compound, in the test with PANDI, the “Post-emergence activity (GR80) PANDI” value was “[empty]”. In addition, the “Post-emergence activity (GR80) BRAPP” value in the test with BRAPP [3] is “[empty]”. For the same compound, the “Post-emergence activity (GR80) CHEAL” value in the test on CHEAL was “[empty]”. Moreover, in the test with DATST, the “Post-emergence activity (GR80) DATST” value is given as “phyto”. The “Post-emergence activity (GR80) DIGSA” value with DIGSA is “[empty]”. For the same compound, in the test with SORHA [4], the “Post-emergence activity (GR80) SORHA” value is “[empty]”.

With `CC(CNC(=O)c1cccc(C(F)(F)F)c1)NC(=O)c1ccccc1SCCCCl` (stereo not shown) [Example 119], in the test with SOLNI [1], the “Post-emergence activity (GR80) SOLNI” value was “phyto”. In the test with AMARE, the “Post-emergence activity (GR80) AMARE” value is “phyto”. The “Post-emergence activity (GR80) PANMI” value in the test with PANMI is “[empty]”. The “Pre-emergence activity (GR80) on SETFA” value with SETFA [5] is “phyto”. Moreover, the “Post-emergence activity (GR80) SORVU” value with SORVU was “[empty]”. For the same compound, the “Pre-emergence activity (GR80) on SOLNI” value in the test with SOLNI [6] is recorded as 1000 g/ha. Further, the “Post-emergence activity (GR80) ECHCG” value in the test with ECHCG is “[empty]”. In addition, in the test with SETFA [7], the “Post-emergence activity (GR80) SETFA” value was “[empty]”. Besides, the “Post-emergence activity (GR80) PORAL” value in the test on POROL is given as “phyto”. Besides, the “Pre-emergence activity (GR80) on BRAPP” value with BRAPP [8] is on record as “phyto”. Further, the “Post-emergence activity (GR80) CONAR” value with CONAR is reported as “phyto”. Besides, in the test on ABUTH [2], the “Post-emergence activity (GR80) ABUTH” value is on record as “phyto”. Moreover, the “Pre-emergence activity (GR80) on ABUTH” value in the test with ABUTH [9] is “phyto”. The “Post-emergence activity (GR80) PANDI” value with PANDI is “[empty]”. For the same compound, the “Post-emergence activity (GR80) BRAPP” value with BRAPP [3] was “[empty]”. In addition, in the test on SORHA [10], the “Pre-emergence activity (GR80) on SORHA” value was “phyto”. Also, in the test with CHEAL, the “Post-emergence activity (GR80) CHEAL” value is “[empty]”. In addition, the “Post-emergence activity (GR80) DATST” value with DATST is given as “phyto”. The “Post-emergence activity (GR80) DIGSA” value in the test on DIGSA is “[empty]”. The “Post-emergence activity (GR80) SORHA” value in the test with SORHA [4] was “[empty]”.

The values above are taken from US20020052295A1, “Diacyl derivatives of propylene diamine having herbicidal activity” (priority 1999, published 2002).
